Legend:
Format in all cases: in vivo, rat
tMCAO rats [1] = experiment: Therapeutic time window in focal cerebral ischemia-reperfusion injured rats; settings: 1 mg/kg, 5 mg/kg; for effect on neurobehavioral injury, infarct volume and cerebral edema: tMCAO rats
Protocol: (§1) 1. In the test, transient middle cerebral artery occlusion (tMCAO) model of rats was adopted. The reperfusion was performed after focal cerebral ischemia for 2 hours so as to inspect therapeutic time window of pinocembrin after focal cerebral ischemia. The rats were administered by pinocembrin racemate (1 mg/kg, 5 mg/kg, intravenous injection) after reperfusion 1 hour, 4 hours and 6 hours (i.e., ischemia 3 hour, 6 hours and 8 hours). (R)-pinocembrin and (S)-pinocembrin (1 mg/kg, 5 mg/kg, intravenous injection) were administered after reperfusion 1 hour and 4 hours (i.e., ischemia 3 hour and 6 hours). The therapeutic time windows of these drugs in focal cerebral ischemia were assessed by studying their effects to neurological symptom scores, infarct sizes and brain water contents during 24 hours after tMCAO.
(§2) 2.4 Experimental Grouping and Administration • Sham operation group (intravenous injection of normal saline after 3 hours of ischemia); • Model group (intravenous injection of 50 mg/kg hydroxypropyl β-cyclodextrin after 3 hours of ischemia); • Nimodipine group (1 mg/kg, administered after 3 hours of ischemia); • Pinocembrin racemate group (1 mg/kg, 5 mg/kg, administered after 3, 6 and 8 hours of ischemia); • (R)-pinocembrin group (1 mg/kg, 5 mg/kg, administered after 3 and 6 hours of ischemia); • (S)-pinocembrin group (1 mg/kg, 5 mg/kg, administered after 3 and 6 hours of ischemia).
(§3) First administration was performed by intravenous injection, and intraperitoneal injection was carried out once 12 hours later with a dose 1.5 times of that for intravenous injection.

MCAO rats [2] = experiment: Regional cerebral blood flow (LDF), MCAO
Excerpt: The rats were fixed pronely on the stereotaxic apparatus and subjected to craniotomy. After cleaning for operation visual field, bregma was used as an origin, and a site situated 2 mm behind and 3 mm right to the bregma was selected as a measuring point. The region […] around the site was thinned by a dental drill. In the process, the integrity of dura was maintained and large vessels were avoided. Probe holder was located and fixed.
The rats were supinely fixed on the operating table to carry out MCAO surgery. When a nylon line was inserted in ICA, it was not inserted into intracranial part until LDF value was stable, and blood flow value in 10 min was recorded, and an average value thereof is used as a baseline value of cerebral blood flow. After the MCAO surgery completed, the nylon line was inserted into the intracranial part. When the blood flow value suddenly declined to 20-30% of the baseline value, it was noted that the blood flow in MCA had been blocked. The blood flow value before MCAO in every group was used as a baseline value (100%) of the group. […] LDF value was determined at the same site before the animals was put to death.

tMCAO rats [3] = experiment: Infarct volume (TTC), tMCAO time window study; settings: 2 hours ischemia and 24 hours reperfusion
Protocol: as §1, §2, §3
After neurobehavioral scoring, the rats were put to death by decollation and their brain tissues were taken out quickly and put into a refrigerator of −20° C. 10 min later, the brain tissues were moved to an environment of room temperature. After the olfactory bulb, cerebellar and lower brain stem were resected, the brain tissue was cut into six continuous coronal slices with an interval of 2 mm. Then the brain slices were quickly put into 5 ml solution containing 2% TTC and incubated at a constant temperature of 37° C. and in a condition of darkness for 30 min. During the time, the brain slices were tipped every 5 min. […] Every group of brain slices were put in order and photographed. The photographs were processed by an image analysis system and the infarct areas in each slice were calculated. The infarct volume of each slice was calculated via multiplying the infarct area by thickness of slice (2 mm), and the infarct volume was the sum of infarct volumes of all slices. The infarct volume percentage was expressed as: sick-side infarct volume/total sick-side brain volume.

NO and TNF-α = NO and TNF-α contents in MCAO rats' serum; settings: 24 hours after ischemia
MCAO rats [4] = experiment: Cerebral infarct volume (TTC), MCAO
Protocol: After neurobehavioral scoring, the rats were put to death by decollation and their brain tissues were removed quickly and put into a refrigerator of −20° C. 10 min later, the brain tissue was moved to an environment of room temperature. After the olfactory bulb, cerebellar and lower brain stem were resected, the brain tissue was cut into five continuous coronal slices with an interval of 2 mm and was cut first on the connection midpoint of brain anterior pole and optic decussation, second on optic decussation, third on funnel handle and fourth on midpoint of funnel handle and thick leaves caudate nucleus. Then the brain slices were quickly put into 5 ml solution containing 4% TTC and 0.1 ml mol·L^−1K2HPO4 and incubated at a constant temperature of 37° C. and in condition of darkness for 30 min. During the time period, the brain slices were tipped every 5 min. […] Every group of brain slices were put in order and photographed. The photographs were processed by an image analysis system and infarct area in every slice was calculated. The infarct volume of every slice was calculated by multiplying the infarct area by the thickness of slice (2 mm), and the infarct volume was the sum of infarct volumes of all slices.
Infarct volume(%)=(volume of surgery-contralateral hemisphere−infarct volume of surgery-homolateral hemisphere)/volume of surgery-contralateral hemisphere×100%

## O=C1CC(c2ccccc2)Oc2cc(O)cc(O)c21 (racemic) [Pinocembrin racemate, pinocembrin racemate]
tMCAO rats [1]; acute ischemic stroke in rats (tMCAO), iv
  therapeutic time window: about 6 hours
tMCAO rats [1]; initially injected after 3 hours of ischemia
  effect on neurobehavioral injury, infarct volume and cerebral edema: significant
tMCAO rats [1]; initially injected after 6 hours of ischemia
  effect on neurobehavioral injury, infarct volume and cerebral edema: significant
MCAO rats [2]; time point 10 min, 3 mg/kg
  regional cerebral blood flow (rCBF): 99.91 ± 7.27 % of baseline value
MCAO rats [2]; time point 10 min, 10 mg/kg
  regional cerebral blood flow (rCBF): 99.91 ± 7.27 % of baseline value
MCAO rats [2]; time point 10 min, 30 mg/kg
  regional cerebral blood flow (rCBF): 99.91 ± 7.27 % of baseline value
MCAO rats [2]; time point 20 min, 3 mg/kg
  regional cerebral blood flow (rCBF): 32.03 ± 6.09 % of baseline value
MCAO rats [2]; time point 20 min, 10 mg/kg
  regional cerebral blood flow (rCBF): 31.45 ± 5.6 % of baseline value
MCAO rats [2]; time point 20 min, 30 mg/kg
  regional cerebral blood flow (rCBF): 37.98 ± 6.87 % of baseline value
MCAO rats [2]; time point 30 min, 3 mg/kg
  regional cerebral blood flow (rCBF): 40.76±6.58 % of baseline value
MCAO rats [2]; time point 30 min, 10 mg/kg
  regional cerebral blood flow (rCBF): 50.09±7.09 % of baseline value
MCAO rats [2]; time point 30 min, 30 mg/kg
  regional cerebral blood flow (rCBF): 53.28±8.03 % of baseline value
MCAO rats [2]; time point 40 min, 3 mg/kg
  regional cerebral blood flow (rCBF): 41.59 ± 6.35 % of baseline value
MCAO rats [2]; time point 40 min, 10 mg/kg
  regional cerebral blood flow (rCBF): 47.72 ± 6.67 % of baseline value
MCAO rats [2]; time point 40 min, 30 mg/kg
  regional cerebral blood flow (rCBF): 54.92 ± 8.58 % of baseline value
MCAO rats [2]; time point 50 min, 3 mg/kg
  regional cerebral blood flow (rCBF): 42.81 ± 5.25 % of baseline value
MCAO rats [2]; time point 50 min, 10 mg/kg
  regional cerebral blood flow (rCBF): 49.98 ± 7.1 % of baseline value
MCAO rats [2]; time point 50 min, 30 mg/kg
  regional cerebral blood flow (rCBF): 55.01 ± 6.25 % of baseline value
MCAO rats [2]; time point 60 min, 3 mg/kg
  regional cerebral blood flow (rCBF): 40.8 ± 7.09 % of baseline value
MCAO rats [2]; time point 60 min, 10 mg/kg
  regional cerebral blood flow (rCBF): 48.99 ± 8.14 % of baseline value
MCAO rats [2]; time point 60 min, 30 mg/kg
  regional cerebral blood flow (rCBF): 57.95 ± 6.09 % of baseline value
MCAO rats [2]; time point 70 min, 3 mg/kg
  regional cerebral blood flow (rCBF): 41.69 ± 8.67 % of baseline value
MCAO rats [2]; time point 70 min, 10 mg/kg
  regional cerebral blood flow (rCBF): 47.01 ± 8.09 % of baseline value
MCAO rats [2]; time point 70 min, 30 mg/kg
  regional cerebral blood flow (rCBF): 53.75 ± 7.09 % of baseline value
MCAO rats [2]; time point 80 min, 3 mg/kg
  regional cerebral blood flow (rCBF): 40.75 ± 7.1 % of baseline value
MCAO rats [2]; time point 80 min, 10 mg/kg
  regional cerebral blood flow (rCBF): 46.07 ± 9.08 % of baseline value
MCAO rats [2]; time point 80 min, 30 mg/kg
  regional cerebral blood flow (rCBF): 54.99 ± 6.67 % of baseline value
MCAO rats [2]; time point 90 min, 3 mg/kg
  regional cerebral blood flow (rCBF): 40.99 ± 8.14 % of baseline value
MCAO rats [2]; time point 90 min, 10 mg/kg
  regional cerebral blood flow (rCBF): 51.85 ± 8.03 % of baseline value
MCAO rats [2]; time point 90 min, 30 mg/kg
  regional cerebral blood flow (rCBF): 55.16 ± 7.1 % of baseline value
MCAO rats [2]; time point 100 min, 3 mg/kg
  regional cerebral blood flow (rCBF): 41.16 ± 6.25 % of baseline value
MCAO rats [2]; time point 100 min, 10 mg/kg
  regional cerebral blood flow (rCBF): 47.12 ± 8.58 % of baseline value
MCAO rats [2]; time point 100 min, 30 mg/kg
  regional cerebral blood flow (rCBF): 56.59 ± 8.14 % of baseline value
MCAO rats [2]; time point 110 min, 3 mg/kg
  regional cerebral blood flow (rCBF): 46.59 ± 7.09 % of baseline value
MCAO rats [2]; time point 110 min, 10 mg/kg
  regional cerebral blood flow (rCBF): 46.89 ± 6.25 % of baseline value
MCAO rats [2]; time point 110 min, 30 mg/kg
  regional cerebral blood flow (rCBF): 57.8 ± 7.27 % of baseline value
MCAO rats [2]; time point 120 min, 3 mg/kg
  regional cerebral blood flow (rCBF): 45.8 ± 5.67 % of baseline value
MCAO rats [2]; time point 120 min, 10 mg/kg
  regional cerebral blood flow (rCBF): 51.8 ± 6.09 % of baseline value
MCAO rats [2]; time point 120 min, 30 mg/kg
  regional cerebral blood flow (rCBF): 64.09 ± 6.09 % of baseline value
MCAO rats [2]; time point 130 min, 3 mg/kg
  regional cerebral blood flow (rCBF): 46.99 ± 6.1 % of baseline value
MCAO rats [2]; time point 130 min, 10 mg/kg
  regional cerebral blood flow (rCBF): 56.59 ± 9.08 % of baseline value
MCAO rats [2]; time point 130 min, 30 mg/kg
  regional cerebral blood flow (rCBF): 61.72 ± 6.58 % of baseline value
MCAO rats [2]; time point 140 min, 3 mg/kg
  regional cerebral blood flow (rCBF): 48.01 ± 7.14 % of baseline value
MCAO rats [2]; time point 140 min, 10 mg/kg
  regional cerebral blood flow (rCBF): 57.8 ± 8.03 % of baseline value
MCAO rats [2]; time point 140 min, 30 mg/kg
  regional cerebral blood flow (rCBF): 64.98 ± 6.35 % of baseline value
MCAO rats [2]; time point 150 min, 3 mg/kg
  regional cerebral blood flow (rCBF): 44.07 ± 7.09 % of baseline value
MCAO rats [2]; time point 150 min, 10 mg/kg
  regional cerebral blood flow (rCBF): 56.99 ± 8.58 % of baseline value
MCAO rats [2]; time point 150 min, 30 mg/kg
  regional cerebral blood flow (rCBF): 63.99 ± 5.25 % of baseline value
MCAO rats [2]; time point 160 min, 3 mg/kg
  regional cerebral blood flow (rCBF): 47.85 ± 6.81 % of baseline value
MCAO rats [2]; time point 160 min, 10 mg/kg
  regional cerebral blood flow (rCBF): 58.01 ± 7.89 % of baseline value
MCAO rats [2]; time point 160 min, 30 mg/kg
  regional cerebral blood flow (rCBF): 57.01 ± 7.09 % of baseline value
MCAO rats [2]; time point 170 min, 3 mg/kg
  regional cerebral blood flow (rCBF): 49.12 ± 6.08 % of baseline value
MCAO rats [2]; time point 170 min, 10 mg/kg
  regional cerebral blood flow (rCBF): 54.07 ± 6.81 % of baseline value
MCAO rats [2]; time point 170 min, 30 mg/kg
  regional cerebral blood flow (rCBF): 65.58 ± 8.67 % of baseline value
MCAO rats [2]; time point 180 min, 3 mg/kg
  regional cerebral blood flow (rCBF): 49.89 ± 7.58 % of baseline value
MCAO rats [2]; time point 180 min, 10 mg/kg
  regional cerebral blood flow (rCBF): 55.9 ± 6.08 % of baseline value
MCAO rats [2]; time point 180 min, 30 mg/kg
  regional cerebral blood flow (rCBF): 62.96 ± 6.81 % of baseline value
tMCAO rats [3]; 1 mg/kg, 3 h
  Infarct percentage (%): 16.59 ± 7.98 %
tMCAO rats [3]; 1 mg/kg, 6 h
  Infarct percentage (%): 23.01 ± 11.00%
tMCAO rats [3]; 1 mg/kg, 8 h
  Infarct percentage (%): 27.16 ± 13.69%
tMCAO rats [3]; 5 mg/kg, 3 h
  Infarct percentage (%): 13.64 ± 6.32 %
tMCAO rats [3]; 5 mg/kg, 6 h
  Infarct percentage (%): 15.03 ± 4.07 %
tMCAO rats [3]; 5 mg/kg, 8 h
  Infarct percentage (%): 28.32 ± 18.65%
NO and TNF-α; 3 mg/kg
  NO: 109.80 ± 9.38 µmol/L
  TNF-α: 1163.09 ± 51.12 pg/mL
NO and TNF-α; 10 mg/kg
  NO: 107.11 ± 9.13 µmol/L
  TNF-α: 1104.83 ± 48.43 pg/mL
NO and TNF-α; 30 mg/kg
  NO: 104.75 ± 5.03 µmol/L
  TNF-α: 1057.48 ± 48.48 pg/mL
MCAO rats [4]; 3 mg/kg
  Percentage of infarct volume (%): 23.1 ± 3.4 %
MCAO rats [4]; 3 mg/kg, listed as pinocembrin racemate
  Percentage of infarct volume (%): 23.1±3.4%
MCAO rats [4]; 10 mg/kg
  Percentage of infarct volume (%): 21.4 ± 2.1 %
MCAO rats [4]; 10 mg/kg, listed as pinocembrin racemate
  Percentage of infarct volume (%): 21.4±2.1%
MCAO rats [4]; 30 mg/kg
  Percentage of infarct volume (%): 14.6 ± 1.1 %
MCAO rats [4]; 30 mg/kg, listed as pinocembrin racemate
  Percentage of infarct volume (%): 14.6±1.1%

Source: patent US20110245334A1, “USE OF RACEMATES OF PINOCEMBRIN IN PREPARING MEDICAMENTS FOR TREATING STROKE” (CSPC Zhonggi Pharmaceutical Technology (Shijiazhuang) Co. …, priority 2008, published 2011)
